# Results: patent publication US11833137B2, “Substituted chromenones, IRE1 inhibitors, and methods of using same” (The Wistar Institute, priority 2018, dated 2023)
# System: CLL cells in PBMCs
# Test: CLL burden in B-I09-injected MD4+/−/Eμ-TCL1+/+ mice
# Type: in vivo, mouse
# Details: 50 mg/kg intraperitoneally, days 1-5 and 8-12
# Method: FIGS. 24A-24J illustrate the finding that targeting XBP-1s in CLL cells of MD4^+/−/Eμ-TCL1^+/+ mice leads to reduced production of sIgM, and decreased numbers and function of granulocytic MDSCs. (FIG. 24A) The levels of IgM in the sera of MD4^+/−/Eμ-TCL1^+/+ and XBP-1^KO/MD4^+/−/Eμ-TCL1^+/+ mice were determined by ELISA. (FIG. 24B) Blood cells collected from MD4^+/−/Eμ-TCL1^+/+ and XBP-1^KO/MD4^+/−/Eμ-TCL1^+/+ mice were treated with RBC lysis buffer, and stained with CD11c-BV421, CD11b-PE, Ly6C-Alexa 488 and Ly6G-Alexa 647. Gated CD11c−/CD11b+ populations were analyzed for Ly6C^intermediate/Ly6G+ granulocytic MDSCs and Ly6C+/Ly6G− monocytic MDSCs. […] Gated CD11b+/Ly6C^intermediate/Ly6G+ granulocytic MDSCs were analyzed for the expression of Arg-1. (FIG. 24F) Mean fluorescence intensity (MFI) of Arg-1 in gated CD11b+/Ly6C^intermediate/Ly6G+ granulocytic MDSCs from spleens of 5 MD4^+/−/Eμ-TCL1^+/+ and 5 XBP-1^KO/MD4^+/−/Eμ-TCL1^+/+ mice was plotted as mean±SEM. […] The ^3H-thymidine uptake was measured, and the percentages of proliferation were calculated by comparing to the positive control and plotted as mean±SEM. […] The percentage of CLL cells in PBMCs for each mouse was determined by flow cytofluorometry on day 6 and day 13, and compared with the CLL burden data of the mouse on day 0 (100%). […]
compound,measurement,value
"O=c1oc2c(C3OCCCO3)c(O)ccc2c2c1CNCC2 [Compound 4, 7-(1,3-dioxan-2-yl)-8-hydroxy-1,2,3,4-tetrahydro-5H-chromeno[3,4-c]pyridin-5-one]",CLL burden in peripheral blood,leukemic regression was observed
